From patent US11510920B2, “Compositions and methods for treating EZH2-mediated cancer” (Icahn School of Medicine at Mount Sinai, priority 2016, dated 2022) come the findings set out here.

Structures are written as SMILES.

In the first experiment the test system is MDA-MB-468 cells. Nature of the experiment: Proliferation assay (IncuCyte cell confluence), MDA-MB-468. Type of experiment: cell-based. Conditions: Homo sapiens, concentration for 50% of maximal inhibition of cell proliferation. The procedure: (§1) 1-3×10^3 cells were seeded in 96-well plates in duplicates and treated at the indicated compound concentrations. Cells were monitored using the IncuCyte® live cell imaging system (Essen BioScience™, Ann Arbor, Mich.) which was placed in a cell culture incubator operated at 37° C. and 5% CO2. Cell confluence was determined using calculations derived from phase-contrast images. The concentration for 50% of maximal inhibition of cell proliferation (GI50) values were determined by fitting to a standard four-parameter logistic using GraphPad Prism® v5. Graphs depicting the GI50s of select EZH2 degraders/disruptors described here for various cancer cell lines are shown in FIGS. 4-49.
As to `Cc1cc(C)c(CNC(=O)c2cc(-c3ccc(N4CCN(CCNC(=O)CCOCCNc5cccc6c5C(=O)N(C5CCC(=O)NC5=O)C6=O)CC4)nc3)cc3c2cnn3C(C)C)c(=O)[nH]1` (stereo not shown) [AM29-177A, N-((4,6-dimethyl-2-oxo-1,2-dihydropyridin-3-yl)methyl)-6-(6-(4-(2-(3-(2-((2-(2,6-dioxopiperidin-3-yl)-1,3-dioxoisoindolin-4-yl)amino)ethoxy)propanamido)ethyl)piperazin-1-yl)pyridin-3-yl)-1-isopropyl-1H-indazole-4-carboxamide], halving of growth (GI50) required 2.5 µM. The molecule `Cc1cc(C)c(CNC(=O)c2cc(-c3ccc(N4CCN(CCNCCC56CC7CC(CC(C7)C5)C6)CC4)nc3)cc3c2c(C)cn3C(C)C)c(=O)[nH]1` [AM41-41A, 6-(6-(4-(2-((2-((3r,5r,7r)-adamantan-1-yl)ethyl)amino)ethyl)piperazin-1-yl)pyridin-3-yl)-N-((4,6-dimethyl-2-oxo-1,2-dihydropyridin-3-yl)methyl)-1-isopropyl-3-methyl-1H-indole-4-carboxamide] had a GI50 of 2.3 µM.

With `CCN(c1cc(-c2ccc(CN3CCN(CCN(CCC45CC6CC(CC(C6)C4)C5)CCC45CC6CC(CC(C6)C4)C5)CC3)cc2)cc(C(=O)NCc2c(C)cc(C)[nH]c2=O)c1C)C1CCOCC1` [CZ40-75, 4′-((4-(2-((2-((1s,3S)-adamantan-1-yl)ethyl)(2-((3R,5R,7R)-adamantan-1-yl)ethyl)amino)ethyl)piperazin-1-yl)methyl)-N-((4,6-dimethyl-2-oxo-1,2-dihydropyridin-3-yl)methyl)-5-(ethyl(tetra-hydro-2H-pyran-4-yl)amino)-4-methyl-[1,1′-biphenyl]-3-carboxamide], the GI50 came to 1.1 µM. Consider `CCN(c1cc(-c2ccc(CN3CCN(CCNC(=O)CCSCCC[C@@H]4/C=C(\C)C[C@H](C)C[C@H](OC)[C@H]5O[C@@](O)(C(=O)C(=O)N6CCCC[C@H]6C(=O)O[C@H](/C(C)=C/[C@@H]6CC[C@@H](O)[C@H](OC)C6)[C@H](C)[C@@H](O)CC4=O)[C@H](C)C[C@@H]5OC)CC3)cc2)cc(C(=O)NCc2c(C)cc(C)[nH]c2=O)c1C)C1CCOCC1` [CZ40-131, FK506 adduct with N-((4,6-dimethyl-2-oxo-1,2-dihydropyridin-3-yl)methyl)-5-(ethyl(tetrahydro-2H-pyran-4-yl)amino)-4′-((4-(2-(3-mercaptopropanamido)ethyl)piperazin-1-yl)methyl)-4-methyl-[1,1′-biphenyl]-3-carboxamide], for which the 50% growth inhibitory concentration (GI50) worked out at 1.5 µM. The molecule `CCN(c1cc(-c2ccc(CN3CCN(CCNCCC45CC6CC(CC(C6)C4)C5)CC3)cc2)cc(C(=O)NCc2c(C)cc(C)[nH]c2=O)c1C)C1CCOCC1` [CZ40-149, 4′-((4-(2-((2-((1s,3s)-adamantan-1-yl)ethyl)amino)ethyl)piperazin-1-yl)methyl)-N-((4,6-dimethyl-2-oxo-1,2-dihydropyridin-3-yl)methyl)-5-(ethyl(tetra-hydro-2H-pyran-4-yl)amino)-4-methyl-[1,1′-biphenyl]-3-carboxamide] yielded a GI50 of 1.8 µM. As to `Cc1cc(C)c(CNC(=O)c2c(C)n([C@@H](C)C3CCN(CCNC(=O)CC4C5CC6CC(C5)CC4C6)CC3)c3ccccc23)c(=O)[nH]1` (stereo partly drawn) [XF042-90, 1-((S)-1-(1-(2-(2-((1R,3S,5S,7S)-adamantan-2-yl)acetamido)ethyl)piperidin-4-yl)ethyl)-N-((4,6-dimethyl-2-oxo-1,2-dihydropyridin-3-yl)methyl)-2-methyl-1H-indole-3-carboxamide], the GI50 is 7.2 µM. Same read-out and setting: with `CO[C@H]1C[C@@H](C)C/C(C)=C/[C@@H](CCCSCCC(=O)NCCN2CCC([C@H](C)n3c(C)c(C(=O)NCc4c(C)cc(C)[nH]c4=O)c4ccccc43)CC2)C(=O)C[C@H](O)[C@@H](C)[C@@H](/C(C)=C/[C@@H]2CC[C@@H](O)[C@H](OC)C2)OC(=O)[C@@H]2CCCCN2C(=O)C(=O)[C@]2(O)O[C@H]1[C@@H](OC)C[C@H]2C` [XF042-92, FK506 adduct with (S)-N-((4,6-dimethyl-2-oxo-1,2-dihydropyridin-3-yl)methyl)-1-(1-(1-(2-(3-mercaptopropanamido)ethyl)piperidin-4-yl)ethyl)-2-methyl-1H-indole-3-carboxamide] the figure was 2.6 µM; with `Cc1cc(C)c(CNC(=O)c2c(C)n([C@@H](C)C3CCN(CCN(CCC45CC6CC(CC(C6)C4)C5)CCC45CC6CC(CC(C6)C4)C5)CC3)c3ccccc23)c(=O)[nH]1` [XF042-93, 1-((S)-1-(1-(2-(bis(2-((3S,5S,7S)-adamantan-1-yl)ethyl)amino)ethyl)piperidin-4-yl)ethyl)-N-((4,6-dimethyl-2-oxo-1,2-dihydropyridin-3-yl)methyl)-2-methyl-1H-indole-3-carboxamide], 2.2 µM; with `COc1cc(C)[nH]c(=O)c1CNC(=O)c1c(C)n([C@@H](C)C2CCN(CCN(CCC34CC5CC(CC(C5)C3)C4)CCC34CC5CC(CC(C5)C3)C4)CC2)c2ccccc12` [XF042-95, 1-((S)-1-(1-(2-(bis(2-((3S,5S,7S)-adamantan-1-yl)ethyl)amino)ethyl)piperidin-4-yl)ethyl)-N-((4-methoxy-6-methyl-2-oxo-1,2-dihydro-pyridin-3-yl)methyl)-2-methyl-1H-indole-3-carboxamide], 2.5 µM. The molecule `Cc1cc(C)c(CNC(=O)c2c(C)n([C@@H](C)C3CCN(CCNCCC45CC6CC(CC(C6)C4)C5)CC3)c3ccccc23)c(=O)[nH]1` [XF042-133, 1-((S)-1-(1-(2-((2-((3S,5S,7S)-adamantan-1-yl)ethyl)amino)ethyl)piperidin-4-yl)ethyl)-N-((4,6-dimethyl-2-oxo-1,2-dihydropyridin-3-yl)methyl)-2-methyl-1H-indole-3-carboxamide] displayed a GI50 of 4.9 µM.

Molecule `CO[C@H]1C[C@@H](C)C/C(C)=C/[C@@H](CCCSCCC(=O)NCCN2CCN(c3ccc(-c4cc(C(=O)NCc5c(C)cc(C)[nH]c5=O)c5cnn(C(C)C)c5c4)cn3)CC2)C(=O)C[C@H](O)[C@@H](C)[C@@H](/C(C)=C/[C@@H]2CC[C@@H](O)[C@H](OC)C2)OC(=O)[C@@H]2CCCCN2C(=O)C(=O)[C@]2(O)O[C@H]1[C@@H](OC)C[C@H]2C` [XY028-086, FK506 adduct with N-((4,6-dimethyl-2-oxo-1,2-dihydropyridin-3-yl)methyl)-1-isopropyl-6-(6-(4-(2-(3-mercaptopro-panamido)ethyl)piperazin-1-yl)pyridin-3-yl)-1H-indazole-4-carboxamide] showed a concentration for 50% growth inhibition (GI50) of 2.4 µM.

The subject of another experiment is HCC1187 cells. Nature of the experiment: Proliferation assay (IncuCyte cell confluence), HCC1187. Type of experiment: cell-based. The following applies: Homo sapiens, concentration for 50% of maximal inhibition of cell proliferation. As to the method: as §1
Consider `CCCc1cc(C)[nH]c(=O)c1CNC(=O)c1cc(-c2ccc(N3CCN(CCNC(=O)CCC45CC6CC(CC(C6)C4)C5)CC3)nc2)cc2c1cnn2C(C)C` [AM16-11A, 6-(6-(4-(2-(3-((1r,3s)-adamantan-1-yl)propanamido)ethyl)piperazin-1-yl)pyridin-3-yl)-1-isopropyl-N-((6-methyl-2-oxo-4-propyl-1,2-dihydro-pyridin-3-yl)methyl)-1H-indazole-4-carboxamide], for which halving of growth (GI50) required 2.6 µM. `CCCc1cc(C)[nH]c(=O)c1CNC(=O)c1cc(-c2ccc(N3CCN(C(=O)CC45CC6CC(CC(C6)C4)C5)CC3)nc2)cc2c1cnn2C(C)C` [AM16-37A, 6-(6-(4-(2-((1s,3s)-adamantan-1-yl)acetyl)piperazin-1-yl)pyridin-3-yl)-1-isopropyl-N-((6-methyl-2-oxo-4-propyl-1,2-dihydropyridin-3-yl)methyl)-1H-indazole-4-carboxamide] gave a GI50 of 2.1 µM.
